Assay results taken from publication PMC10892041, “Vanadium Complexes with Thioanilide Derivatives of Amino Acids: Inhibition of Human Phosphatases and Specificity in Various Cell Models of Metabolic Disturbances” (Pharmaceuticals, 2024).
Like-named read-outs stand apart in the source and are kept apart here.

What was measured:
SHP2 = molecular target: T1, SHP2 (Homo sapiens, UniProt Q06124); experiment: Inhibition of human recombinant tyrosine phosphatase SHP2 (DiFMUP fluorescence); type: biochemical; conditions: for Inhibition of SHP2, percentage of inhibition of the control: 1 µM, control solvent only, SD did not exceed 6%
T1 construct: purchased Sigma-Aldrich
T1 sequence (Q06124 1-593): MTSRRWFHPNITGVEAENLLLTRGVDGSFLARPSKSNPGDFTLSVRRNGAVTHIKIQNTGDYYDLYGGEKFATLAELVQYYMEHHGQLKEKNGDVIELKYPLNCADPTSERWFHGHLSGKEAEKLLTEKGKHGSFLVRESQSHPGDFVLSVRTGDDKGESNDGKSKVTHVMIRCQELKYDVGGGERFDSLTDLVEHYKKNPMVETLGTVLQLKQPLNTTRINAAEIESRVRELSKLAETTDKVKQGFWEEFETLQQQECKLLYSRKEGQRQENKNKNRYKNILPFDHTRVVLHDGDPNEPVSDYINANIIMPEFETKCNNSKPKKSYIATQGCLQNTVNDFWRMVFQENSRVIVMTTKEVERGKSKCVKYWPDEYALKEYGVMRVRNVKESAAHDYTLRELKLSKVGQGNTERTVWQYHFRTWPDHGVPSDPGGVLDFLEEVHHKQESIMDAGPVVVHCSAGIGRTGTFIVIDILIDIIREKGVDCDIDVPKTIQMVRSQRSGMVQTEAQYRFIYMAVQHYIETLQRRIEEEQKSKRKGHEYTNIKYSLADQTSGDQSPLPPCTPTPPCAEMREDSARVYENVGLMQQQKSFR
Procedure, shortened: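 Human recombinant phosphatases (SHP1 400 ng/mL, SHP2 50 ng/mL, LAR 5 ng/mL final) were pre-incubated 10 min with compound in 25 mM MOPS pH 7.0, 50 mM NaCl, 1 mM DTT, 0.05% Tween-20. DiFMUP (0.1 mM final) was added for 20 min at 23 °C and fluorescence read at 355/560 nm. Screening used 1 µM compound (% inhibition vs vehicle); IC50 also reported.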

PTP1B [1] = molecular target: T2, PTP1B (Homo sapiens, UniProt P18031); conditions: cited from earlier work
T2 construct: purchased Sigma-Aldrich
T2 sequence (P18031 1-435): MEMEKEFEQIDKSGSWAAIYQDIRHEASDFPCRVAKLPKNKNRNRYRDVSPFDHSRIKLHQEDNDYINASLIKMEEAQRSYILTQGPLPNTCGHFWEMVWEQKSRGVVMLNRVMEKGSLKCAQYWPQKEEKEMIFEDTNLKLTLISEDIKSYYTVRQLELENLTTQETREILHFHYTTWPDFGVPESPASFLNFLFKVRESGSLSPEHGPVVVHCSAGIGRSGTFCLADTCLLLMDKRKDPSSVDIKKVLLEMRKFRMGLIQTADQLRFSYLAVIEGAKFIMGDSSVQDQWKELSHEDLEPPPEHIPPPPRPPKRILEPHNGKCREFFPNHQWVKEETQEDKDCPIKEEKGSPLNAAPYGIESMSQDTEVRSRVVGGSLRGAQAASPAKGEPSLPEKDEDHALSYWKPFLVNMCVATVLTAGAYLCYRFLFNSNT

myocytes C2C12 [2] = experiment: Scintillation proximity assay, transport of [14C]-deoxy-D-glucose into myocytes C2C12; type: cell-based, mouse; conditions: 50 µM; control solvent only
Method: The myocyte C2C12 cell line (ATCC CRL-1772), a subclone of myoblasts from mouse muscles, was cultured according to standard protocol in DMEM supplemented with 10% fetal calf serum, 100 IU/ml penicillin, and […] streptomycin at 37 °C in 5% CO2. Cells were pleated on a 96-well microplate and after reach confluence were differentiated in medium with 2% horse serum. Differentiation medium was changed every 72 h.
(§1) Scintillation proximity assay (SPA) is a method to measure the real-time accumulation of radiolabeled substrates by adherent cells with no filtration needed. Radioactivity concentrated closer to the scintillator embedded in the plastic bottom of each well provides a stronger signal than the radiolabeled substrate in the culture medium. Uptake of radiolabeled 2-deoxy-D-[U-14C]-glucose was conducted based on previous descriptions.
After 24 h incubation, the tested complexes were added. After 2 h incubation at 37 °C in 5% CO2, the medium was changed to low-glucose medium (1000 mg/L), and the tested complexes were added again, with further incubation for 4 h being conducted.
(§2) For cells proceeded as above, 2-deoxy-D-[U-14C]-glucose (250–350 mCi/mmol, NEC720A, PerkinElmer) solution in KRB with a total activity of 0.03 mCi was added to each well. […] Non-specific radioactivity was subtracted from each result (cpm). Two independent experiments with triplicates were conducted.

adipocytes 3T3-L1 = experiment: Scintillation proximity assay, transport of [14C]-deoxy-D-glucose into adipocytes 3T3-L1; type: cell-based, mouse; conditions: 50 µM
Method: Adipocytes 3T3-L1 cell line (ATCC CRL-11605) derived from fibroblasts from mouse embryo tissue were cultured according to standard protocol in DMEM medium supplemented with 10% bovine calf serum, 100 IU/mL penicillin, and […] streptomycin at 37 °C in 5% CO2. Cells were seeded in 96-well poly-D-lysine-coated plates and cultured to reach confluency.
as §1
Adipocytes were washed and the medium was changed to the basal medium. After 24 h incubation, the tested complexes were added. After 2 h incubation at 37 °C in 5% CO2, the medium was changed to DMEM medium without glucose, with 0.1% BSA free from fatty acid, […] L-glutamine, and […] pyruvate. The tested complexes were added again, and further incubation for 4 h was conducted.
as §2

PTP1B [3] = molecular target: T2, PTP1B; experiment: Inhibition of human recombinant tyrosine phosphatase PTP1B (DiFMUP fluorescence); type: biochemical; conditions: for Inhibition of PTP1B, percentage of inhibition of the control: 1 µM, control solvent only, SD did not exceed 6%; for Log IC50 ± SD PTP1B: logarithm of IC50; for IC50: read-out: IC50 PTP1B
Procedure, shortened: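 Human recombinant PTP1B (final 50 ng/mL) in buffer of 25 mM MOPS, 50 mM NaCl, 1 mM DTT and 0.05% Tween-20 (pH 7.0) was dispensed onto test compound in black 384-well plates. After 10 min, DiFMUP was added to 0.1 mM. Plates were incubated 20 min at 23 °C and fluorescence read (ex 355, em 560 nm). Assays were run in triplicate, with inhibition relative to enzyme-plus-vehicle control and IC50 fitted in GraphPad Prism.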

myocytes C2C12 [4] = experiment: Viability of myocytes C2C12 after 24 h incubation (resazurin-based reagent); conditions: 50 µM; 24 h incubation; control solvent only

Structure (SMILES) | IC50 (SHP2) [µM] | Inhibition of SHP2, percentage of inhibition of the control (SHP2) [%] | IC50 (PTP1B [1]; lower end of published range) [µM] | IC50 (PTP1B [1]; upper end of published range) [µM] | Transport of [14C]-deoxy-D-glucose into C2C12 myocytes, % of the control (myocytes C2C12 [2]) | Transport of [14C]-deoxy-D-glucose into 3T3-L1 adipocytes, % of control (adipocytes 3T3-L1) | Inhibition of PTP1B, percentage of inhibition of the control (PTP1B [3]) [%] | Log IC50 ± SD PTP1B (PTP1B [3]) | IC50 (PTP1B [3]) [µM] | Cell viability of myocytes C2C12, % of the control (myocytes C2C12 [4]) [%]
O=S(=O)([O-])[O-].[O]=[V+2] [VOSO4, reference compound] | 0.013 | 77 | 0.018 | 0.38 | 110 % of control | low activity | 62 | −7.00 ± 0.07 | 0.099 | –
Cc1occc(=O)c1[O-].Cc1occc(=O)c1[O-].[O]=[V+2] [BMOV, bis(maltolato)oxidovanadium(IV), reference compound] | 0.008 | 82 | – | – | 125 % of control | low activity | 77 | −6.83 ± 0.02 | 0.149 | 90 ± 4
